Test [1] is described as follows: Activity at beta-lactamase type 2 (unknown origin) by fluorescence spectrum analysis.
Test [2] can be described thus: Activity at metallo-beta-lactamase L1 (unknown origin) by UV-vis spectrophotometry analysis.
Test [3] can be described thus: Activity at beta-lactamase type 2 (unknown origin) by UV-vis spectrophotometry analysis.
Test [4] is described as follows: Activity at metallo-beta-lactamase L1 (unknown origin) by fluorescence spectrum analysis.

For `O=C(O)C1=C(CSc2ccc(NC(=O)c3cc4ccccc4oc3=O)cc2)CS[C@@H]2[C@H](NC(=O)c3cc4ccccc4oc3=O)C(=O)N12`, the Km in test [1] worked out at 11 µM; in test [2], 13 µM; in test [3], 18 µM; in test [4] it was 18 µM. Moreover, the kcat in test [1] came to 17 s⁻¹; in test [2], 5 s⁻¹; in test [3] it was 12 s⁻¹; in test [4], 5 s⁻¹.

Values taken from ChEMBL document CHEMBL2331207, “A novel fluorogenic substrate for dinuclear Zn(II)-containing metallo-β-lactamases” (Bioorg Med Chem Lett, 2013).
